# From EP2550959A1 (priority 2011, dated 2013)
# pIC50: −log10 of the molar value. Like-named read-outs stand apart in the source and are kept apart here.
# Assays:
# [1] = system: 5-HT-induzierte Effekte; conditions: 2007], cited from earlier work
# [2] = Antioxidative effect / uptake of oxygen radicals; format: physicochemical; conditions: per single molecule
# Description: Die massenspektroskopisch in der Mehrheit nachweisbaren Reaktionsprodukte enthalten 2 Sauerstoffatome; es lassen sich aber auch Verbindungen mit 3, 4 und 5 Sauerstoff-Atomen nachweisen.
# Ein typisches Charakteristikum von Massenspektra ist, dass Gipfel von [M+H]++18, d. h. Zusatz von Wasser, oder [M+H]++16, d.h. Zusatz eines Sauerstoffatoms, gefunden werden, wie auch Kombinationen von Wasser und Sauerstoffatomen. Wegen der niedrigen in den Entnahmeproben enthaltenen Substanzmengen und der Kurzlebigkeit der Reaktionsprodukte war deren Isolierung zur Strukturaufklärung nicht möglich. Das Lisuridmolekül weist mehrere Positionen auf, an denen Wasser und/oder ein Sauerstoffatom gebunden werden können (Fig. 4).
# [3] = target: 5-HT2A Rezeptoren von Schweineherzkranzarterien (Sus scrofa, UniProt P50129); test: Functional 5-HT2A receptor assay: 5-HT-induced contraction of pig coronary arteries; format: biochemical, Schwein
# Description: (§1) Dabei bedeutet der pA2 -Wert den negativ dekadischen Logarithmus der Konzentration eines Antagonisten, die es erforderlich macht, die Agonisten-Konzentration zu verdoppeln, um den Ausgangseffekt des Agonisten ohne Antagonisten wiederherzustellen.
# [4] = system: Menschliche glatte Muskelzellen mesenterialen Ursprungs; test: 5-HT-stimulated proliferation of human smooth muscle cells (3H-thymidine uptake); format: cell-based; conditions: 10 µmol/l test substance, growth stimulated with 10-8 mol/l 5-HT; Fig. 2
# Description: Menschliche glatte Muskelzellen mesenterialen Ursprungs (Promo Cell) wurden entsprechend den Empfehlungen des Herstellers bis zur Bildung geschlossener Monolayers in 6 Platten mit PromoCell-Kulturmedium vermehrt und dann im gleichen Medium auf 24-Vertiefungsträgern für eine Zellzahl von 5x104 Zellen/Ansatz ausgesät. […] Zur Bestimmung des Zellwachstums wurde dann 3H-Thymidin (Amersham) zu den Zellkulturen hinzugegeben und diese für 24 Stunden inkubiert. Nach der Adhäsion der Zellen wurde das Kulturmedium durch ein Standardmedium mit 0.2% fetalem Kalbsserum zum Wachstumsstopp ersetzt und erneut 48 Stunden lang inkubiert.
# Um antiproliferative Wirkungen der beschriebenen Substanzen zu testen, wurden die Zellkulturen dann zunächst mit einer Konzentration von 10 µmol/l der Prüfsubstanzen präinkubiert. […] Zur Messung des Wachstums der Zellen wurde dann 3H-Thymidin (Amersham) den Kulturen zugefügt und diese für 24 Stunden inkubiert. Danach erfolgten 2 Inkubationen in eisgekühlter Kochsalzlösung mit einem Phosphat-Puffer und danach 30 min Inkubation in eisgekühlter 10%iger Trichlor-Essigsäure bei 4°C. Die Zellen wurden dann in 0.1 molarer NaOH-Lösung inkubiert (0.5 ml/Inkubationsgefäss). Nach Neutralisierung mit Essigsäure wurde die 3H -Thymidin-Aufnahme mit Flüssig-Szintillation gemessen (als Dreifach-Bestimmung).
# [5] = system: monocrotalin-induzierten Lungenhochdruck; test: Monocrotaline-induced pulmonary hypertension in the rat; format: in vivo, Sprague-Dawley Ratten; conditions: days 15-28, mean ± SEM (N=6)
# Description: Monocrotalin (MCT) ist ein Toxin aus Pflanzen der Spezies Crotalaria, welches nach einer einzigen Injektion in Ratten die Endothelzellen der pulmonalen Arterien schädigt mit folgender Hypertrophie der glatten Gefässmuskulatur und persistierendem schwerem pulmonalem Hochdruck. Die MCTinduzierte pulmonale Hypertension der Ratte ist ein gut etabliertes und validiertes Modell der humanen pulmonalen Hypertension und alle heute zugelassenen Therapeutika haben eine Wirkung in diesem Modell gezeigt, zumindest wenn sie vor dem toxisch bedingten Gewebeumbau angewendet wurden.
# MCT (60mg/kg) wurde bei männlichen Sprague-Dawley Ratten als Einzelinjektion subkutan verabreicht und ein gleiches Volumen isotonischer Kochsalzlösung bei den Kontrolltieren injiziert. […] Dabei wurde die genannte Dosis der jeweiligen Testsubstanz morgens und abends in einem Volumen von je 2.0 ml an Gruppen von jeweils 6 Tieren gegeben, die an Tag 1 des Experiments mit MCT behandelt worden waren. Die gleiche Menge Wasser wurde den Kontrolltieren zugeführt.
# Am Tag 28 des Experiments, zwei Stunden nach letztmaliger Substanzgabe, wurden die Tiere narkotisiert unter Verwendung von Pentobarbital. Eine Tracheotomie wurde durchgeführt und die Tiere unter Isofluran-Anästhesie beatmet. Der mittlere arterielle Systemdruck und der systolische Druck im rechten Herzventrikel wurden gemessen. Nach den Druckmessungen wurden die Tiere mit physiologischer Kochsalzlösung perfundiert und die rechte Lunge wurde zur Bestimmung des Kollagengehalts entfernt.
# Die sc-Injektion von MCT, wie oben beschrieben, führt zu einer schweren Schädigung des pulmonalen Gefässendothels sowie überschießender Produktion von Bindegewebe und Entwicklung einer pulmonalen Hypertonie. Anhäufung von Kollagen, gemessen als Hydroxyprolin-Gehalt des Lungengewebes, und Anstieg des rechtsventrikulären systolischen Drucks reflektieren die beschriebenen strukturellen und funktionalen Veränderungen. Die möglichen therapeutischen und präventiven Effekte von Lisurid bzw. Tergurid wurden in dem vorgestellten Modell der pulmonalen Hypertension gemessen. […]
# [6] = target: T1, 5-HT2B Rezeptoren von Schweinelungenarterien (Sus scrofa, UniProt F1SMV8); test: Functional 5-HT2B receptor assay: 5-HT-induced relaxation of PGF2α-precontracted pig pulmonary arteries; format: biochemical, Schwein; conditions: conditions as in Beispiel 1
# Description: as §1
# Die vaskuläre Reaktion in Präparationen der Pulmonalarterien des Schweins, die mittels PGF2α vorkontrahiert waren, wurden als Assay für die spezifische Interaktion mit 5-HT2B-Rezeptoren verwendet (siehe Fig. 1A).
# [7] = target: T1, 5-HT2B Rezeptoren von Schweinelungenarterien; conditions: footnote d: from Glusa and Pertz, Brit. J. Pharmacol. 130, 692-698, 2000; cited from earlier work
# [8] = Stability of lisuride dissolved in water (HPLC); conditions: room temperature, HPLC (Fig. 3A)
# 5-HT2A Rezeptoren von Schweineherzkranzarterien, sequence (P50129 whole entry): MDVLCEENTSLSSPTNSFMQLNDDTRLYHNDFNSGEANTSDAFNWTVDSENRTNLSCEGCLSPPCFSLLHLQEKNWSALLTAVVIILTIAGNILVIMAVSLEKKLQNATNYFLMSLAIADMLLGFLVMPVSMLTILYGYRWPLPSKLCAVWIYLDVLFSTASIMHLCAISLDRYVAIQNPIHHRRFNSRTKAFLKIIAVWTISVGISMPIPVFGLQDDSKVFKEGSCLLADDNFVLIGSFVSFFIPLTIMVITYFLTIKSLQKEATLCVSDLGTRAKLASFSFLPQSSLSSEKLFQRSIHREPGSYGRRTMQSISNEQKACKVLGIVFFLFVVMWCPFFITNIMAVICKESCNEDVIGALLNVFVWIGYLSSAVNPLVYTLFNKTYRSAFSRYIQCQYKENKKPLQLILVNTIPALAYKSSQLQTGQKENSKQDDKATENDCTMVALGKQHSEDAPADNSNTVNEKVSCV
# T1 sequence (F1SMV8 1-481): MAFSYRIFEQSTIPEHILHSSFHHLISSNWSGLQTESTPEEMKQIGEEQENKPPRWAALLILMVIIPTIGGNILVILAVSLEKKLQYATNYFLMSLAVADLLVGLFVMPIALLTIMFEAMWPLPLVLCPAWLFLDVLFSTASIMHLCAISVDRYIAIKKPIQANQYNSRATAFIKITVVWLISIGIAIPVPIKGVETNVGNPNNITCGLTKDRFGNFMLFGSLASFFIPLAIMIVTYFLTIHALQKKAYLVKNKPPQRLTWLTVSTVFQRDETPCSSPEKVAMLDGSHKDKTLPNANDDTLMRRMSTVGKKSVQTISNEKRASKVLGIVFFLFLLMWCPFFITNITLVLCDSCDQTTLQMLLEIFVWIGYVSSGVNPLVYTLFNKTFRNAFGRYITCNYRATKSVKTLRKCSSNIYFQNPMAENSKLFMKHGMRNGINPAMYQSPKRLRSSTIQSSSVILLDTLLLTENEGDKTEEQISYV
compound,measurement,setting,value
"CCN(CC)C(=O)N[C@H]1C[C@@H]2c3cccc4[nH]cc(c34)C[C@H]2N(C)C1 [Tergurid, trans-Dihydrolisurid]",5-HT-induzierter Gewichtsanstieg von Herz und Leber,[1]; rat [Hauso O et al.,verhinderte
same,Verhaltensabnormalitäten und fibrotische Hautveränderungen an den Injektionsorten von 5-HT,[1]; rat [Hauso O et al.,unterdrückte
same,pulmonale Klappeninsuffizienz,"[1]; rat, daily 5-HT over 4 months [Hauso O et al.",nicht nachweisbar
same,"freie Sauerstoffradikale, die ein Molekül aufnehmen kann",[2],≤ 4
same,pIC50,[3],9.43
same,Zellproliferation (3H -Thymidin-Aufnahme),[4],Reduktion der Zellproliferation
same,RVPsys,[5]; Monocrotaline (60 mg/kg s.c.) + 2.5 mg/kg bid by gavage,39 ± 3 mmHG
same,SAP,"[5]; Monocrotaline + 2.5 mg/kg bid, systemic arterial pressure",111 ± 7 mmHG
same,Hydroxyproline,"[5]; lung, Monocrotaline + 2.5 mg/kg bid",2.7 ± 1.2 ug/g protein
Oxtergurid,5-HT2B pA2,[6],6.42 ± 0.20
same,5-HT2A pA2,"[3]; pig coronary arteries, conditions as in Beispiel 1",6.99 ± 0.04
Cc1cc(NC(=O)Nc2ccc3c(ccn3C)c2)sn1 [SB204741],5-HT2B pA2,[7],6.59 ± 0.20^d
CCN(CC)C(=O)NC1CNC2Cc3c[nH]c4cccc(c34)C2C1 (stereo not drawn) [6-Nortergurid],5-HT2B pA2,[6],7.11 ± 0.08
same,Kb,[3],14.1 nM
CCN(CC)C(=O)NC1C=C2c3cccc4[nH]cc(c34)CC2NC1 (stereo not drawn) [6-Norlisurid],5-HT2B pA2,[6],8.39 ± 0.12
same,Kb,[3],1.45 nM
"CCN(CC)C(=O)N[C@H]1C=C2c3cccc4[nH]cc(c34)C[C@H]2N(C)C1 [Lisurid, 3-(9,10-didehydro-6-methylergoline-8alpha-yl)-1,1-diethylurea]","freie Sauerstoffradikale, die ein Molekül aufnehmen kann",[2],≤ 6
same,Abbau von gelöstem Lisurid in Wasser,[8],schnell zu Produkten abgebaut
CCN(CC)C(=O)NC1CC2c3cccc4[nH]cc(c34)CC2N(C)C1 (stereo not drawn) [8β-Tergurid],5-HT2B pA2,[6],8.39 ± 0.09
same,Kb,[3],5.13 nM
"CCNC(=O)NC1CC2c3cccc4[nH]cc(c34)CC2N(C)C1 (stereo not drawn) [N""-Monodesethyltergurid]",5-HT2B pA2,[6],7.30 ± 0.02
same,Kb,[3],15.1 nM
"CCNC(=O)NC1C=C2c3cccc4[nH]cc(c34)CC2N(C)C1 (stereo not drawn) [N""-Monodesethyllisurid]",5-HT2B pA2,[6],8.08 ± 0.05
same,Kb,[3],5.13 nM
